Data taken from ChEMBL document CHEMBL3817810, “Four new minor brominated indole related alkaloids with antibacterial activities from Laurencia similis” (2016).
Values after ≈ are worked out from the molar mass of the structure shown.

What was measured:
Type in all cases: functional
[1] = system: Agrobacterium tumefaciens; assay: Antibacterial activity against Agrobacterium tumefaciens by broth microdilution assay
[2] = system: Pseudomonas amygdali pv. lachrymans; assay: Antibacterial activity against Pseudomonas lachrymans by broth microdilution assay
Ralstonia solanacearum = assay: Antibacterial activity against Ralstonia solanacearum by broth microdilution assay
Bacillus thuringiensis = assay: Antibacterial activity against Bacillus thuringiensis by broth microdilution assay
Xanthomonas vesicatoria = assay: Antibacterial activity against Xanthomonas vesicatoria by broth microdilution assay
Bacillus subtilis = assay: Antibacterial activity against Bacillus subtilis by broth microdilution assay
Staphylococcus aureus = assay: Antibacterial activity against Staphylococcus aureus by broth microdilution assay

Row | Structure (SMILES) | MIC [1] [µg/mL] | MIC [2] [µg/mL] | MIC (Ralstonia solanacearum) [µg/mL] | MIC (Bacillus thuringiensis) [µg/mL] | MIC (Xanthomonas vesicatoria) [µg/mL] | MIC (Bacillus subtilis) [µg/mL] | MIC (Staphylococcus aureus) [µg/mL]
1 | Cc1cc(C)c2[nH]c3cc(Br)c(Br)cc3c2c1 | > 250 | > 250 | > 250 | > 250 | 50 (≈ 142 µM) | > 250 | > 250
2 | COC(=O)Nc1cc(Br)c(Br)cc1C(=O)OC | > 250 | > 250 | > 250 | > 250 | > 250 | > 250 | > 250
3 | CC(C)=C1C(=O)N(O)c2cc(Br)c(Br)cc21 | 12.5 (≈ 36 µM) | 50 (≈ 144 µM) | 50 (≈ 144 µM) | 50 (≈ 144 µM) | > 250 | 50 (≈ 144 µM) | 12.5 (≈ 36 µM)
4 | Oc1ccc(Cc2c(Br)[nH]c3cc(Br)c(Br)cc23)cc1Br | 4 (≈ 7.42 µM) | 8 (≈ 14.8 µM) | 4 (≈ 7.42 µM) | 8 (≈ 14.8 µM) | 8 (≈ 14.8 µM) | 8 (≈ 14.8 µM) | 2 (≈ 3.71 µM)
5 | CC1(C)S[C@@H]2[C@H](NC(=O)Cc3ccccc3)C(=O)N2[C@H]1C(=O)O [PENICILLIN G] | 250 (≈ 748 µM) | 250 (≈ 748 µM) | 250 (≈ 748 µM) | 64 (≈ 191 µM) | 250 (≈ 748 µM) | 0.125 (≈ 0.374 µM) | 0.25 (≈ 0.748 µM)
